# Data published in patent publication US20240131168A1, “NAPHTHALENE RING-CONTAINING COMPOUND, PHARMACEUTICAL COMPOSITION CONTAINING SAME, AND USE THEREOF” (JIANGSU YAHONG MEDITECH CO., LTD., priority 2021, published 2024).
# Molecular target: T1, ERα (Homo sapiens, UniProt P03372)
# T1 construct: MCF-7 (ATCC; Cat. No.: HTB-22), a Luminal A breast cancer cell; culture medium EMEM; host or cells: MCF-7
# T1 sequence (P03372 1-595): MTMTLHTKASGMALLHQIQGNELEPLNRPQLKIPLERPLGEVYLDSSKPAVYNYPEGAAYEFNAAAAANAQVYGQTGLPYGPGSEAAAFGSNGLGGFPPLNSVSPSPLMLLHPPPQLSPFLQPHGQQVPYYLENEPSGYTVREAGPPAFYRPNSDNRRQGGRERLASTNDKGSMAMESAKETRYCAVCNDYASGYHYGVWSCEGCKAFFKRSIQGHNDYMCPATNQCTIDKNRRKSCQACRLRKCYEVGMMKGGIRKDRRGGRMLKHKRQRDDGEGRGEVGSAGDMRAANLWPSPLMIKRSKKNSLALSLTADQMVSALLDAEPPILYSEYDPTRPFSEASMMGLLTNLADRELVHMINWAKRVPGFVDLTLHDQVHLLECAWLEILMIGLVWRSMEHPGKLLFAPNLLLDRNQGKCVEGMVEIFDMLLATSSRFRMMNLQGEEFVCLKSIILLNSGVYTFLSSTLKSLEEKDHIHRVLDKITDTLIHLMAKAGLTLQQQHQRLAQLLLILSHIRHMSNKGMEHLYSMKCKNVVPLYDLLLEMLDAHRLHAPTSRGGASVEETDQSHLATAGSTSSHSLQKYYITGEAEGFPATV
# Assay: iELISA of ER degradation in MCF-7 cells (Effect Example 1)
# Format: cell-based
# Conditions: MCF-7 iELISA, processing time 4 hours, starting concentration 1 μM; for Dmax: MCF7; for DC50: read-out: DC50 (drug concentration corresponding to 50% protein degradation)
# Description: 1. Cell Line • Breast cancer cell line and its culture medium: • MCF-7 (ATCC; Cat. No.: HTB-22), a Luminal A breast cancer cell; culture medium EMEM.
# 2. Reagents • Culture medium EMEM (Gibco, 1964507) • Fetal bovine serum (Gibco, 10091148) • Penicillin-streptomycin double antibody (Gibco, S110JV) • DPBS (Gibco, 14190-144) • CellTiter-Glo® assay kit (Promega, G7573) • Trypsin (0.25%) (Gibco, 25200-056) • DMSO (Sigma, D2650)
# 3. Instruments • Biosafety cabinet (AIRTECH, BSC-1300A II) • Automated cell counter (Life Technologies, countess II) • Multifunctional microplate reader (Biotek, H1FM) • Orbital shaker (Hangzhou Allsheng Instruments Co., Ltd., OS-100) • XLFIT 5.3 (Inforstack Shanghai Co., Ltd.)
# For this test method, the following experiments were performed in a biosafety cabinet, with the specific steps as follows: • (1) On the first day, cells were inoculated in a 96-well plate, the previous culture medium was poured off, 5 mL of DPBS was added to wash the cells, and then DPBS was pipetted and discarded. 1 mL of trypsin (0.25%) was then added. The plate was digested in a 37° C., 5% CO2 cell incubator for about 2 to 5 minutes and then taken out. A new corresponding culture medium was added, and pipetted up and down to resuspend the cells evenly. The cells were then counted using an automated cell counter. • (2) Each cell was inoculated in columns 1 to 12 of a 96-well plate (Corning, Cat. No.: 356690) at a density of 30,000 cells per well in 100 μL of culture medium. The plate was then placed in a 37° C., 5% CO2 incubator for 24 hours. • (3) On the second day, the compound of the present disclosure was 4-fold serially diluted to 10 dose points starting at 1 μM. 10 μL of the serially diluted compound was pipetted and added to 100 μL of cells in columns 1 to 10, and 10 μL of the corresponding culture medium containing 0.33 v % DMSO was added to both columns 11 and 12. The plate was incubated in a 37° C., 5% CO2 incubator for 4 hours (Note: column 11 was used as a MIN well without compound and primary antibody but with secondary antibody; column 12 was used as a MAX well without compound but with primary antibody and secondary antibody). • (4) The culture medium was then removed. The cells were washed once with 100 µL of DPBS, and fixed with 100 μL of 1 v % formaldehyde (CST; Cat. No.: 12606) fixative at room temperature for 30 minutes. • (5) The fixative was removed. The cells were washed once with 100 μL of DPBS, and permeabilized with 100 μL of 80 v % pre-cooled methanol (Jiazu-chemical; Cat. No.: 67-56-1) at 4° C. for 15 minutes. • (6) Methanol was removed, and the cells were washed once with 100 μL of DPBS. The plate was added with 100 μL of primary antibody (1:5000, a volume ratio of primary antibody to BSA; manufacturer of primary antibody: Invitrogen, Cat. No.: MA5-14501), and incubated at 4° C. overnight. • (7) Primary antibody was removed, and the cells were washed three times with […] of DPBS. The plate was added with 100 μL of secondary antibody (1:2500, a volume ratio of secondary antibody to BSA; manufacturer of secondary antibody: Univ, Cat. No.: abs20002), and incubated at room temperature for 1 hour. • (8) Secondary antibody was removed, and the cells were washed three times with […] of DPBS. The plate was added with 100 μL of tetramethylbenzidine (TMB) (CST; Cat. No.: 7004), and incubated at room temperature for 1 hour. • (9) The plate was added with 100 μL of stop buffer (CST; Cat. No.: 7002), and incubated at room temperature for 10 minutes. The OD450 signal value was detected with a multifunctional microplate reader, and finally, the degradation effect of the compound of the present disclosure on ER was plotted by XLFIT software, and the DC50 value of the compound of the present disclosure (drug concentration corresponding to 50% protein degradation) was calculated; Dmax=[(the highest level of ERα−the lowest level of ERα)/(the highest level of ERα)].
Structure (SMILES),Dmax,DC50
"CCN(CCOc1ccc(Oc2c(-c3ccc(S(C)(=O)=O)cc3)ccc3cc(O)ccc23)cc1)CC(=O)N1CCN(c2ccc3c(c2)C(=O)N(C2CCC(=O)NC2=O)C3=O)CC1 (centres unmarked) [Compound D8, 2-(2,6-dioxopiperidin-3-yl)-5-(4-(N-ethyl-N-(2-(4-((6-hydroxy-2-(4-(methylsulfonyl)phenyl)naphthalen-1-yl)oxy)phenoxy)ethyl)glycyl)piperazin-1-yl)isoindoline-1,3-dione]",43%,
"C[C@@H]1CN(CCOc2ccc(Oc3c(-c4ccc(S(C)(=O)=O)cc4)ccc4cc(O)ccc34)cc2)[C@@H](C)CN1CCOCC(=O)N1CCN(c2ccc3c(c2)CN(C2CCC(=O)NC2=O)C3=O)CC1 (stereo partly drawn) [Compound D9, 3-(5-(4-(2-(2-((2R,5S)-4-(2-(4-((6-hydroxy-2-(4-(methylsulfonyl)phenyl)naphthalen-1-yl)oxy)phenoxy)ethyl)-2,5-dimethylpiperazin-1-yl)ethoxy)acetyl)piperazin-1-yl)-1-oxoisoindolin-2-yl)piperidine-2,6-dione]",48%,
"CS(=O)(=O)c1ccc(-c2ccc3cc(O)ccc3c2Oc2ccc(N3CCN(CCCCCOCC(=O)N4CCN(c5ccc6c(c5)CN(C5CCC(=O)NC5=O)C6=O)CC4)CC3)cc2)cc1 (centres unmarked) [Compound D11, 3-(5-(4-(2-((5-(4-(4-((6-hydroxy-2-(4-(methylsulfonyl)phenyl)naphthalen-1-yl)oxy)phenyl)piperazin-1-yl)pentyl)oxy)acetyl)piperazin-1-yl)-1-oxoisoindolin-2-yl)piperidine-2,6-dione]",40%,
"C[C@@H]1CN(CCOCC(=O)N2CCN(c3ccc4c(c3)C(=O)N(C3CCC(=O)NC3=O)C4=O)CC2)[C@@H](C)CN1CCOc1ccc(Oc2c(-c3ccc(S(C)(=O)=O)cc3)ccc3cc(O)ccc23)cc1 (stereo partly drawn) [Compound D15, 2-(2,6-dioxopiperidin-3-yl)-5-(4-(2-(2-((2S,5R)-4-(2-(4-((6-hydroxy-2-(4-(methylsulfonyl)phenyl)naphthalen-1-yl)oxy)phenoxy)ethyl)-2,5-dimethylpiperazin-1-yl)ethoxy)acetyl)piperazin-1-yl)isoindoline-1,3-dione]",60%,7.6 nM
CS(=O)(=O)c1ccc(-c2ccc3cc(O)ccc3c2Oc2ccc(OCCOCCOCCOCCN3CCN(c4ccc5c(c4)C(=O)N(C4CCC(=O)NC4=O)C5=O)CC3)cc2)cc1 (centres unmarked) [Compound D19],47%,
CS(=O)(=O)c1ccc(-c2ccc3cc(O)ccc3c2Oc2ccc(OCCOCCOCCOCCN3CCN(c4ccc5c(c4)C(=O)N(C4CCC(=O)NC4=O)C5)CC3)cc2)cc1 (centres unmarked) [Compound D21],69%,7.5 nM

# Second part, the compound after the results:
Dmax,DC50,Structure (SMILES)
54%,4.9 nM,"CS(=O)(=O)c1ccc(-c2ccc3cc(O)ccc3c2Oc2ccc(OCCOCCOCCN3CCN(c4ccc5c(c4)C(=O)N(C4CCC(=O)NC4=O)C5)CC3)cc2)cc1 (centres unmarked) [Compound D22, 3-(6-(4-(2-(2-(2-(4-((6-hydroxy-2-(4-(methylsulfonyl)phenyl)naphthalen-1-yl)oxy)phenoxy)ethoxy)ethoxy)ethyl)piperazin-1-yl)-1-oxoisoindolin-2-yl)piperidine-2,6-dione]"
34%,,"CCN(CCOCCOCCN1CCN(c2ccc3c(c2)C(=O)N(C2CCC(=O)NC2=O)C3=O)CC1)CCOc1ccc(Oc2c(-c3ccc(S(C)(=O)=O)cc3)ccc3cc(O)ccc23)cc1 (centres unmarked) [Compound D28, 2-(2,6-dioxopiperidin-3-yl)-5-(4-(2-(2-(2-(ethyl(2-(4-((6-hydroxy-2-(4-(methylsulfonyl)phenyl)naphthalen-1-yl)oxy)phenoxy)ethyl)amino)ethoxy)ethoxy)ethyl)piperazin-1-yl)isoindoline-1,3-dione]"
35%,,CS(=O)(=O)c1ccc(-c2ccc3cc(O)ccc3c2Oc2ccc(OCCOCCOCCN3CCN(c4ccc5c(c4)CN(C4CCC(=O)NC4=O)C5=O)CC3)cc2)cc1 (centres unmarked) [Compound D30]
35%,,"CCN(CCCCCN(C)CC(=O)N1CCN(c2ccc3c(c2)C(=O)N(C2CCC(=O)NC2=O)C3=O)CC1)CCOc1ccc(Oc2c(-c3ccc(S(C)(=O)=O)cc3)ccc3cc(O)ccc23)cc1 (centres unmarked) [Compound D31, 2-(2,6-dioxopiperidin-3-yl)-5-(4-(N-(5-(ethyl(2-(4-((6-hydroxy-2-(4-(methylsulfonyl))phenyl)naphthalen-1-yl)oxy)phenoxy)ethyl)aminopentyl)-N-methylglycyl)piperazin-1-yl)isoindoline-1,3-dione]"
45%,,"CCN(CCOc1ccc(Oc2c(-c3ccc(S(C)(=O)=O)cc3)ccc3cc(O)ccc23)cc1)C(=O)c1ccc(CCC2CCN(C3CCN(c4ccc5c(c4)C(=O)N(C4CCC(=O)NC4=O)C5=O)CC3)CC2)cc1 (centres unmarked) [Compound D34, 4-(2-(1′-(2-(2,6-dioxopiperidin-3-yl)-1,3-dioxoisoindolin-5-yl)-[1,4′-bipiperidin]-4-yl)ethyl)-N-ethyl-N-(2-(4-((6-hydroxy-2-(4-(methylsulfonyl)phenyl)naphthalen-1-yl)oxy)phenoxy)ethyl)benzamide]"
32%,,"CS(=O)(=O)c1ccc(-c2ccc3cc(O)ccc3c2Oc2ccc(OCCOCCOCCOCCOc3ccc4c(c3)C(=O)N(C3CCC(=O)NC3=O)C4)cc2)cc1 (centres unmarked) [Compound D35, 3-(6-(2-(2-(2-(2-(4-((6-hydroxy-2-(4-(methylsulfonyl)phenyl)naphthalen-1-yl)oxy)phenoxy)ethoxy)ethoxy)ethoxy)ethoxy)-1-oxoisoindolin-2-yl)piperidine-2,6-dione]"
67%,0.5 nM,"CS(=O)(=O)c1ccc(-c2ccc3cc(O)ccc3c2Oc2ccc(OCCCCN3CCN(c4ccc5c(c4)CN(C4CCC(=O)NC4=O)C5=O)CC3)cc2)cc1 (centres unmarked) [Compound D59, 3-(5-(4-(4-(4-((6-hydroxy-2-(4-(methylsulfonyl)phenyl)naphthalen-1-yl)oxy)phenoxy)butyl)piperazin-1-yl)-1-oxoisoindolin-2-yl)piperidine-2,6-dione]"
